Like-named read-outs stand apart in the source and are kept apart here.
What was measured:
[1] = pKa and acid-form fraction of lactic acid; assay type: physicochemical; conditions: pH of 2.2
Text: In some example embodiments of formulations including an allergen neutralizing agent, the pH of the formulations can be kept low. A low pH can enhance the organic acid efficacy (e.g., lactic acid efficacy) in neutralization of airborne allergens. Typically, pH is kept a least 1 unit below pKa of the organic acid to ensure the majority (e.g., at least 90%) of acid stays in the active (conjugate acid) form. […].

[2] = cited from earlier work

| SMILES | Solubility in water (g of compound in 100 g of water at ~20° C.) ([2]; ~20° C.) | other results |
| --- | --- | --- |
| CC(O)C(=O)O (centres unmarked) [lactic acid] | – | fraction of lactic acid in the acidic form [1]: at least 95% |
| O=C(O)/C=C/C(=O)O [fumaric acid] | 0.7 g of compound in 100 g of water | – |
| CCCCCC(=O)O [hexanoic acid] | – | Solubility in water (g of compound in 100 g of water at ~20° C.) [2]: 1.03 g of compound in 100 g of water |
| CS(=O)(=O)O [methane sulfonic acid] | 100 g of compound in 100 g of water | – |
| CCCCC(=O)O [valeric acid] | 3.75 g of compound in 100 g of water | – |
| C/C=C/C=C/C(=O)O [sorbic acid] | 0.156 g of compound in 100 g of water | – |
| CCCCCCC(=O)O [heptanoic acid] | 0.2 g of compound in 100 g of water | – |
| O=C(O)/C=C\C(=O)O [maleic acid] | 47.88 g of compound in 100 g of water | – |
| CC(=O)C(=O)O [pyruvic acid] | 100 g of compound in 100 g of water | – |
| CC(=O)CCC(=O)O [levulinic acid] | 79.13 g of compound in 100 g of water | – |
| O=C(O)CC(O)C(=O)O (centres unmarked) [malic acid] | 64.7 g of compound in 100 g of water | – |
